Reference: US11684614B2, “Formulations of hydroxypyridonate actinide/lanthanide decorporation agents” (priority 2017, dated 2023)
Values joined by “and” are separate entries in the source; they are usually repeats but may differ in a detail not shown here. Identical values can stand only once.

Assay: Repeated-treatment efficacy for removing an intravenous dose of 238Pu (excretion, tissue retention, clinical observations), female and male arms
Type: in vivo, Swiss-Webster mice
Details: listed as 3,4,3-LI(1,2-HOPO)
Procedure: The objective of this study was to characterize the efficacy of 3,4,3-L1(1,2-HOPO) at enhancing elimination from an internal plutonium burden in female and male Swiss-Webster mice administered a soluble citrate complex of ^238Pu and treated multiple times, starting at 24 hours after the exposure. Efficacy was evaluated by comparing the tissue contents, urinary and fecal excretions of ^238Pu in treated animals versus untreated animals.
The medical countermeasure 3,4,3-L1(1,2-HOPO) was administered parenterally (ip) or orally (po) via consecutive injections or gavages (six daily or twelve twice daily) starting at 24 hours post contamination at the following four selected doses: 30 μmol/kg ip, 150 μmol/kg po, 300 μmol/kg po, and 600 μmol/kg po (equivalent to respective approximate human doses range of […], using the accepted conversion system of mouse doses into human equivalent doses—HED—based on body surface area). Oral doses also included the permeability enhancer selected during formulation development work.
• Challenge isotope: ^238Pu • Challenge dose: 25 nCi (i.e., approximately 0.8 μCi/kg) • Route of contamination: Intravenous (iv) tail-vein • Route of treatment: Intraperitoneal Injection (ip) or Oral (po) • Frequency of treatment: Multiple (once- or twice-daily for 6 days) doses, starting 24 hr postcontamination • Treatment dose calculation: Dose calculations (mg/kg or μmol/kg) for the decorporation agent were based on the individual body weight measured after contamination. • Study Duration: 11 days, in-life
c. […] Test article and control dose formulations were prepared within 1 day of dose administration, by weighing out the appropriate amount of test article, dispersing in vehicle. For ip solutions, the test article was used alone, while for oral suspensions, a mixture of test article and excipient (90:10, w:w) was used. The pH was adjusted to 7.0-7.4 for ip administration and 5.0-5.5 for oral administration with sterile NaOH. Dose formulations were prepared at room temperature and filter-sterilized. • Storage: 2-8° C.; refrigerated; protected from light. • Characterization: The concentration of each test article formulation was verified by high-performance liquid chromatography-mass spectrometry. • Test Article Handling: Test, reference, and control article formulations were handled with the use of eye protection, gloves, and a protective laboratory coat. • Correct Dose Assurance: The test article was weighed with calibrated balances. The administration of each dose formulation was properly documented, and the amount administered to each animal recorded.
e. Experimental Procedures (In-Life Evaluations and Euthanasia) • Contamination: Single administration by intravenous (iv) tail-vein injection (0.2 mL injection volume) under isoflurane anesthesia. Three standard 0.2 mL injections were performed into polyethylene bottles and pre-loaded with aliquots of concentrated nitric acid on each injection day. Six female and six male mice were culled for necropsy 1 hr post-contamination and were used as standards. A11 standards were processed and counted together with the final samples to allow verification of the contamination dose. • Dose Administration: Single administration by intraperitoneal injection (ip) or oral gavage (po) under isoflurane anesthesia. • Mortality/Morbidity: Assessed at least once daily. • Clinical Observations: Recorded once daily (4 hr post-dose on day of treatment), or more often as clinical signs warranted. […]

O=C(NCCCN(CCCCN(CCCNC(=O)c1cccc(=O)n1O)C(=O)c1cccc(=O)n1O)C(=O)c1cccc(=O)n1O)c1cccc(=O)n1O [3,4,3-L1(1,2-HOPO)]
% Recovered Dose-Female Animals-Urine per Day-Day 11 Necropsy (animal group H, day 8, female mice): 0.66% and 1.22% and 0.77% and 0.75% and 0.78% and 0.99% and 0.49% and 1.24%
% Recovered Dose-Female Animals-Urine per Day-Day 11 Necropsy (animal group H, day 9, female mice): 0.40% and 0.85% and 0.75% and 0.43% and 0.47% and 0.72% and 0.37% and 0.99%
% Recovered Dose-Female Animals-Urine per Day-Day 11 Necropsy (animal group H, day 10, female mice): 0.31% and 0.47% and 0.39% and 0.29% and 0.19% and 0.50% and 0.25% and 0.54%
% Recovered Dose-Female Animals-Urine per Day-Day 11 Necropsy (animal group H, day 11, female mice): 0.25% and 0.49% and 0.32% and 0.27% and 0.37% and 0.52% and 0.29% and 0.67%
% Recovered Dose-Female Animals-Urine per Day-Day 11 Necropsy (animal group I, day 1, female mice): 7.77% and 13.56% and 9.39% and 8.83% and 9.40% and 8.09% and 8.07% and 7.99%
% Recovered Dose-Female Animals-Urine per Day-Day 11 Necropsy (animal group I, day 3, female mice): 5.15% and 4.91% and 4.95% and 3.52% and 6.42% and 5.63% and 7.70%
% Recovered Dose-Female Animals-Urine per Day-Day 11 Necropsy (animal group I, day 4, female mice): 2.76% and 3.63% and 3.08% and 3.06% and 4.72% and 4.39%
% Recovered Dose-Female Animals-Urine per Day-Day 11 Necropsy (animal group I, day 5, female mice): 2.07% and 2.10% and 1.73% and 1.67% and 1.85% and 1.81% and 1.59%
% Recovered Dose-Female Animals-Urine per Day-Day 11 Necropsy (animal group I, day 6, female mice): 1.80% and 2.08% and 1.82% and 1.64% and 2.11% and 1.61% and 1.48%
% Recovered Dose-Female Animals-Urine per Day-Day 11 Necropsy (animal group I, day 7, female mice): 1.20% and 1.23% and 1.07% and 1.17% and 1.43% and 1.94% and 1.45%
% Recovered Dose-Female Animals-Urine per Day-Day 11 Necropsy (animal group I, day 8, female mice): 0.79% and 1.03% and 0.78% and 0.83% and 0.67% and 0.96% and 0.90%
% Recovered Dose-Female Animals-Urine per Day-Day 11 Necropsy (animal group I, day 9, female mice): 0.82% and 0.67% and 0.59% and 0.61% and 0.55% and 0.69% and 0.52%
% Recovered Dose-Female Animals-Urine per Day-Day 11 Necropsy (animal group I, day 10, female mice): 0.78% and 0.49% and 0.52% and 0.32% and 0.31% and 0.55% and 0.45%
% Recovered Dose-Female Animals-Urine per Day-Day 11 Necropsy (animal group I, day 11, female mice): 0.67% and 0.65% and 0.58% and 0.43% and 0.46% and 0.89% and 0.44%
% Recovered Dose-Female Animals-Urine per Day-Day 11 Necropsy (animal group L, day 1, female mice): 5.35% and 10.51% and 3.65% and 5.09% and 9.71% and 8.91% and 9.38% and 5.37%
% Recovered Dose-Female Animals-Urine per Day-Day 11 Necropsy (animal group L, day 2, female mice): 9.62% and 11.11% and 5.95% and 8.55% and 8.68% and 12.54% and 10.49% and 9.01%
% Recovered Dose-Female Animals-Urine per Day-Day 11 Necropsy (animal group L, day 3, female mice): 5.07% and 4.30% and 2.41% and 3.68% and 5.39% and 4.44% and 3.21% and 5.10%
% Recovered Dose-Female Animals-Urine per Day-Day 11 Necropsy (animal group L, day 4, female mice): 4.52% and 3.28% and 1.82% and 3.38% and 3.96% and 3.67% and 4.12% and 5.10%
% Recovered Dose-Female Animals-Urine per Day-Day 11 Necropsy (animal group L, day 5, female mice): 2.41% and 2.57% and 6.05% and 2.26% and 2.77% and 2.39% and 2.74% and 3.54%
% Recovered Dose-Female Animals-Urine per Day-Day 11 Necropsy (animal group L, day 6, female mice): 1.58% and 1.95% and 4.31% and 3.12% and 2.44% and 1.42% and 1.86% and 2.87%
% Recovered Dose-Female Animals-Urine per Day-Day 11 Necropsy (animal group L, day 7, female mice): 2.68% and 4.39% and 2.50% and 2.41% and 2.29% and 1.58% and 2.14% and 2.03%
% Recovered Dose-Female Animals-Urine per Day-Day 11 Necropsy (animal group L, day 8, female mice): 2.01% and 6.27% and 1.63% and 1.89% and 1.73% and 1.02% and 1.29% and 1.12%
% Recovered Dose-Female Animals-Urine per Day-Day 11 Necropsy (animal group L, day 9, female mice): 0.99% and 3.81% and 0.96% and 1.05% and 0.50% and 0.53% and 0.57%
% Recovered Dose-Female Animals-Urine per Day-Day 11 Necropsy (animal group L, day 10, female mice): 1.29% and 1.70% and 0.71% and 1.04% and 0.44% and 0.60% and 0.41%
% Recovered Dose-Female Animals-Urine per Day-Day 11 Necropsy (animal group L, day 11, female mice): 0.70% and 1.28% and 0.58% and 0.75% and 0.68% and 0.40% and 0.72% and 0.59%
% Recovered Dose-Female Animals-Urine per Day-Day 11 Necropsy (animal group M, day 1, female mice): 8.44% and 9.22% and 6.58% and 5.72% and 8.33% and 7.11% and 8.76% and 7.62%
% Recovered Dose-Female Animals-Urine per Day-Day 11 Necropsy (animal group M, day 2, female mice): 6.23% and 7.89% and 7.02% and 10.02% and 10.31% and 12.05% and 7.08% and 9.14%
% Recovered Dose-Female Animals-Urine per Day-Day 11 Necropsy (animal group M, day 3, female mice): 2.30% and 3.50% and 4.87% and 4.65% and 3.13% and 1.94% and 3.83% and 3.56%
% Recovered Dose-Female Animals-Urine per Day-Day 11 Necropsy (animal group M, day 4, female mice): 3.18% and 2.79% and 3.46% and 4.28% and 3.48% and 2.77% and 2.90% and 3.40%
% Recovered Dose-Female Animals-Urine per Day-Day 11 Necropsy (animal group M, day 5, female mice): 1.90% and 2.00% and 3.07% and 4.53% and 2.38% and 1.31% and 2.10% and 2.52%
% Recovered Dose-Female Animals-Urine per Day-Day 11 Necropsy (animal group M, day 6, female mice): 2.20% and 3.65% and 3.85% and 2.48% and 2.57% and 1.91% and 3.39% and 2.63%
% Recovered Dose-Female Animals-Urine per Day-Day 11 Necropsy (animal group M, day 7, female mice): 1.09% and 4.12% and 3.24% and 1.63% and 2.05% and 0.95% and 2.29% and 2.08%
% Recovered Dose-Female Animals-Urine per Day-Day 11 Necropsy (animal group M, day 8, female mice): 1.16% and 1.96% and 1.85% and 1.17% and 1.59% and 1.23% and 1.36% and 1.47%
% Recovered Dose-Female Animals-Urine per Day-Day 11 Necropsy (animal group M, day 9, female mice): 0.89% and 0.80% and 0.95% and 0.56% and 0.83% and 0.91% and 1.12% and 1.20%
% Recovered Dose-Female Animals-Urine per Day-Day 11 Necropsy (animal group M, day 10, female mice): 0.48% and 0.61% and 0.71% and 0.70% and 1.03% and 1.20% and 1.18%
